Experimental data as given in ChEMBL document CHEMBL5532691, “Anti-cancer activity and mechanism of flurbiprofen organoselenium compound RY-1-92 in non-small cell lung cancer” (RSC Med Chem, 2024).
Calls of active or inactive are those of the source. The calls are words filed in the database; no cut-off is given here.

Tests used:
NCI-H460 [1] = assay: Downregulation of AKT phosphorylation expression in human NCI-H460 cells at 10 to 30 uM by Western blot analysis; format: functional, cell-based; details: dose 10-30 µM
A549 [2] = assay: Inhibition of colony formation in human A549 cells at 30 uM measured after 48 hrs by giemsa staining based analysis relative to control; format: functional
NCI-H460 [3] = assay: Induction of cell cycle arrest in human NCI-H460 cells assessed as accumulation of cells as S phase at 30 uM measured after 24 hrs by propidium iodide staining based flow cytometry analysis (reference value: 7.09%); format: functional
NCI-H460 [4] = assay: Upregulation of Bax/Bcl2 ratio in human NCI-H460 cells at 10 to 30 uM by Western blot analysis; format: functional, cell-based; details: dose 10-30 µM
Lewis lung carcinoma [5] = assay: Antitumor activity against mouse Lewis lung carcinoma cell line xenografted in C57BL/6 mouse model assessed as decrease in bcl-2 protein expression at 10 to 20 mg/kg by Western blot analysis; format: functional, organism-based; details: dose 10-20 mg/kg
A549 [6] = assay: Inhibition of cell migration in human A549 cells at 10 to 30 uM measured after 24 hrs by wound healing assay relative to control; format: functional; details: dose 10-30 µM
NCI-H460 [7] = assay: Induction of cell cycle arrest in human NCI-H460 cells assessed as accumulation of cells as G1 phase at 30 uM measured after 24 hrs by propidium iodide staining based flow cytometry analysis (reference value: 84.54%); format: functional
NCI-H460 [8] = assay: Inhibition of colony formation in human NCI-H460 cells at 30 uM measured after 48 hrs by giemsa staining based analysis relative to control; format: functional
A549 [9] = assay: Induction of apoptosis in human A549 cells assessed as viable cells at 30 uM measured after 48 hrs by annexin V-FITC/PI staining based flow cytometry analysis (reference value: 80.26%); format: functional; details: read-out: Activity
NCI-H460 [10] = assay: Induction of apoptosis in human NCI-H460 cells assessed as necrotic cells at 10 uM measured after 48 hrs by annexin V-FITC/PI staining based flow cytometry analysis (reference value: 2.47%); format: functional
NCI-H460 [11] = assay: Induction of cell cycle arrest in human NCI-H460 cells assessed as accumulation of cells as G1 phase at 10 uM measured after 24 hrs by propidium iodide staining based flow cytometry analysis (Rvb =84.54%); format: functional
NCI-H460 [12] = assay: Antiproliferative activity against human NCI-H460 cells assessed as inhibition of cell growth incubated for 48 hrs by MTT assay; format: functional, cell-based
A549 [13] = assay: Induction of apoptosis in human A549 cells assessed as early apoptotic cells at 10 uM measured after 48 hrs by annexin V-FITC/PI staining based flow cytometry analysis (reference value: 0.59%); format: functional
Lewis lung carcinoma [14] = assay: Antitumor activity against mouse Lewis lung carcinoma cell line xenografted in C57BL/6 mouse model assessed as reduction in tumor volume at 10 to 20 mg/kg, ip measured every three days for 15 days by vernier caliper analysis; format: functional, organism-based; details: dose 10-20 mg/kg, time 15.0 day
NCI-H460 [15] = assay: Downregulation of ERK phosphorylation expression in human NCI-H460 cells at 10 to 30 uM by Western blot analysis; format: functional, cell-based; details: dose 10-30 µM
A549 [16] = assay: Induction of cell cycle arrest in human A549 cells assessed as accumulation of cells as S phase at 10 uM measured after 24 hrs by propidium iodide staining based flow cytometry analysis (reference value: 19.57%); format: functional
A549 [17] = assay: Upregulation of Bax/Bcl2 ratio in human A549 cells at 10 to 30 uM by Western blot analysis; format: functional, cell-based; details: dose 10-30 µM
A549 [18] = assay: Upregulation of Bax protein expression in human A549 cells at 10 to 30 uM by Western blot analysis; format: functional, cell-based; details: dose 10-30 µM
NCI-H460 [19] = assay: Induction of apoptosis in human NCI-H460 cells assessed as viable cells at 30 uM measured after 48 hrs by annexin V-FITC/PI staining based flow cytometry analysis (reference value: 91.81%); format: functional; details: read-out: Activity
A549 [20] = assay: Downregulation of CDK1 protein expression in human A549 cells at 10 to 30 uM by Western blot analysis; format: functional, cell-based; details: dose 10-30 µM
A549 [21] = assay: Induction of cell cycle arrest in human A549 cells assessed as accumulation of cells as G1 phase at 10 uM measured after 24 hrs by propidium iodide staining based flow cytometry analysis (reference value: 71.74%); format: functional
NCI-H460 [22] = assay: Induction of cell cycle arrest in human NCI-H460 cells assessed as accumulation of cells as G2 phase at 30 uM measured after 24 hrs by propidium iodide staining based flow cytometry analysis (reference value: 8.37%); format: functional
NCI-H460 [23] = assay: Downregulation of P38 phosphorylation expression in human NCI-H460 cells at 10 to 30 uM by Western blot analysis; format: functional, cell-based; details: dose 10-30 µM
Lewis lung carcinoma [24] = assay: Antitumor activity against mouse Lewis lung carcinoma cell line xenografted in C57BL/6 mouse model assessed as downregulation of CDK1 expression at 10 to 20 mg/kg by Western blot analysis; format: functional, organism-based; details: dose 10-20 mg/kg
NCI-H460 [25] = assay: Downregulation of cyclin B1 protein expression in human NCI-H460 cells at 30 uM by Western blot analysis; format: functional, cell-based
A549 [26] = assay: Downregulation of AKT phosphorylation expression in human A549 cells at 10 to 30 uM by Western blot analysis; format: functional, cell-based; details: dose 10-30 µM
NCI-H460 [27] = assay: Induction of cell cycle arrest in human NCI-H460 cells assessed as accumulation of cells as G2 phase at 10 uM measured after 24 hrs by propidium iodide staining based flow cytometry analysis (reference value: 8.37%); format: functional
A549 [28] = assay: Induction of cell cycle arrest in human A549 cells assessed as accumulation of cells as G2 phase at 10 uM measured after 24 hrs by propidium iodide staining based flow cytometry analysis (reference value: 8.69%); format: functional
A549 [29] = assay: Induction of cell cycle arrest in human A549 cells assessed as accumulation of cells as G1 phase at 30 uM measured after 24 hrs by propidium iodide staining based flow cytometry analysis (reference value: 71.74%); format: functional
NCI-H460 [30] = assay: Upregulation of Bax protein expression in human NCI-H460 cells at 10 uM by Western blot analysis; format: functional, cell-based

CC(C(=O)NCCC[Se]C(F)(F)F)c1ccc(-c2ccccc2)c(F)c1 (stereo unspecified)
Activity (NCI-H460 [1]): Active | inhibition at 30 µM (A549 [2]): 89% | Activity (NCI-H460 [3]): 11.14% | Activity (NCI-H460 [4]): Active | Activity (Lewis lung carcinoma [5]): Active | inhibition (INH) (A549 [6]): 62.9% | Activity (NCI-H460 [7]): 5.73% | inhibition at 30 µM (NCI-H460 [8]): 88% | viability at 30 µM (A549 [9]): 55% | Activity (NCI-H460 [10]): 1.67% | Activity (NCI-H460 [11]): 78.71% | IC50 (NCI-H460 [12]; NCI-H460, 48 h): 78.2 µM | Activity (NCI-H460 [12]; dose 3-300 µM): Dose-Dependent Effect | Activity (A549 [13]): 0.53% | Activity (Lewis lung carcinoma [14]): Active | Activity (NCI-H460 [15]): Active | Activity (A549 [16]): 13.83% | Activity (A549 [17]): Active | Activity (A549 [18]): Active | viability at 30 µM (NCI-H460 [19]): 74% | Activity (A549 [20]): Active | Activity (A549 [21]): 76.88% | Activity (NCI-H460 [22]): 83.13% | Activity (NCI-H460 [23]): Active | Activity (Lewis lung carcinoma [24]): Active | Activity (NCI-H460 [25]): Active | Activity (A549 [26]): Active | Activity (NCI-H460 [27]): 10.69% | Activity (A549 [28]): 9.29% | Activity (A549 [29]): 7.45% | Activity (NCI-H460 [30]): Active
